Experimental data taken from PubChem BioAssay (NCI).
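1) Cells in 96-well plates. 2) Compound, 48 h, 5 concentrations. 3) Linear interpolation between surrounding doses. 4) Unreached endpoint = highest concentration. Definition used: TGI = concentration required for complete inhibition of growth.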

Columns and labels:
Assay in all cases: NCI tumour cell line growth inhibition, 48 h
LOX IMVI melanoma = test system: LOX IMVI melanoma
SR leukemia = test system: SR leukemia
786-0 renal = test system: 786-0 renal
NCI-H460 lung = test system: NCI-H460 lung
HOP-62 NSCLC = test system: HOP-62 NSCLC
SF-539 CNS = test system: SF-539 CNS
RPMI-8226 leukemia = test system: RPMI-8226 leukemia
OVCAR-4 ovarian = test system: OVCAR-4 ovarian
MDA-MB-231 breast = test system: MDA-MB-231 breast
KM12 colon = test system: KM12 colon

Structure (SMILES)	TGI (LOX IMVI melanoma) [µM]	TGI (SR leukemia) [µM]	TGI (786-0 renal) [µM]	TGI (NCI-H460 lung) [µM]	TGI (HOP-62 NSCLC) [µM]	TGI (SF-539 CNS) [µM]	TGI (RPMI-8226 leukemia) [µM]	TGI (OVCAR-4 ovarian) [µM]	TGI (MDA-MB-231 breast) [µM]	TGI (KM12 colon) [µM]
C/C(=N\N=C(N)N)C(CN(C)C)C(c1ccccc1)c1c(O)c2ccccc2oc1=O (stereo not given)	> 100	> 100	> 100	> 100	> 100	> 100	> 100	> 100	> 100	> 100
NS(=O)(=O)c1ccc(NC(=O)c2cccc3cc4ccccc4nc23)cc1	> 97.3	> 100	> 100	> 100	> 100	> 94.3	> 100	> 100	> 100	> 100
